Reference: patent publication US8952024B2, “Herbicidal pyrimidone derivatives” (E I du Pont de Nemours and Company, priority 2009, dated 2015)

Key:
Test in all cases: Test D pre-/postemergence plant response
Assay type in all cases: in vivo
[1] = tested on: chickweed (common chickweed, Stellaria media); details: Postemergence
Outline: (§1)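 Both preemergence and postemergence treatments were made at the same time, with the compound in a non-phytotoxic, surfactant-containing solvent mixture. Plants grew in a greenhouse for 14–21 days before visual evaluation, scored from 0 (no effect) to 100 (complete control).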

[2] = tested on: morningglory (pitted morningglory, Ipomoea lacunosa)
Outline: as §1

[3] = tested on: dallisgrass (Paspalum dilatatum)
Outline: as §1

[4] = tested on: sowthistle (common sowthistle, Sonchus oleraceous)
Outline: as §1

[5] = tested on: green foxtail (Setaria viridis)
Outline: as §1

[6] = tested on: nutsedge (purple nutsedge, Cyperus rotundus)
Outline: as §1

[7] = tested on: barnyardgrass (Echinochloa crus-galli)
Outline: as §1

[8] = tested on: itchgrass (Rottboellia cochinchinensis)
Outline: as §1

[9] = tested on: goosegrass (Eleusine indica)
Outline: as §1

[10] = tested on: prickly sida (Sida spinosa)
Outline: as §1

[11] = tested on: large crabgrass (Digitaria sanguinalis)
Outline: as §1

[12] = tested on: purslane (common purslane, Portulaca oleracea)
Outline: as §1

[13] = tested on: bluegrass (annual bluegrass, Poa annua)
Outline: as §1

kochia (Kochia scoparia) = tested on: kochia (Kochia scoparia)
Outline: as §1

[14] = tested on: johnsongrass (Sorghum halepense)
Outline: as §1

[15] = tested on: ragweed (common ragweed, Ambrosia elatior)
Outline: as §1

[16] = Postemergence, 16 g ai/ha, scale 0 to 100
[17] = Postemergence, 31 g ai/ha, scale 0 to 100
[18] = Postemergence, 125 g ai/ha, scale 0 to 100 (0 no effect, 100 complete control)
[19] = Postemergence, 62 g ai/ha, scale 0 to 100 (0 no effect, 100 complete control)
[20] = Preemergence, 16 g ai/ha, scale 0 to 100, 0 no effect, 100 complete control
[21] = Preemergence, 62 g ai/ha, scale 0 to 100
[22] = Preemergence, 125 g ai/ha, scale 0 to 100
[23] = Preemergence, 31 g ai/ha, scale 0 to 100 (0 no effect, 100 complete control)
[24] = Postemergence, 31 g ai/ha, scale 0 to 100 (0 no effect, 100 complete control)

Q: `O=C1CCCC(O)=C1C(=O)c1cnc(C2CC2)n(-c2ccccc2)c1=O` [Compound 87] was tested. Which “Plant response rating, Chickweed” value ([1]; 16 g ai/ha, scale 0 to 100) did it give?
A: 75

Q: What about the “Plant response rating, Chickweed” value ([1]; 31 g ai/ha, scale 0 to 100) of the same compound?
A: 75

Q: And the “Plant response rating, Chickweed” value ([1]; 125 g ai/ha, scale 0 to 100 (0 no effect, 100 complete control))?
A: 100

Q: And the “Plant response rating, Chickweed” value ([1]; 62 g ai/ha, scale 0 to 100 (0 no effect, 100 complete control))?
A: 75

Q: What about the “Plant response rating, Morningglory” value [2, 16] of the same compound?
A: 40

Q: What about the “Plant response rating, Morningglory” value [2, 17] of the same compound?
A: 40

Q: What about the “Plant response rating, Morningglory” value [2, 18] of the same compound?
A: 50

Q: And the “Plant response rating, Morningglory” value [2, 19]?
A: 40

Q: And the “Plant response rating, Morningglory” value [2, 20]?
A: 10

Q: What about the “Plant response rating, Morningglory” value [2, 21] of the same compound?
A: 80

Q: What about the “Plant response rating, Morningglory” value [2, 22] of the same compound?
A: 95

Q: And the “Plant response rating, Dallisgrass” value [3, 16]?
A: 25

Q: And the “Plant response rating, Dallisgrass” value [3, 17]?
A: 25

Q: And the “Plant response rating, Dallisgrass” value [3, 18]?
A: 75

Q: And the “Plant response rating, Dallisgrass” value [3, 19]?
A: 50

Q: And the “Plant response rating, Dallisgrass” value [3, 20]?
A: 50

Q: What about the “Plant response rating, Dallisgrass” value [3, 23] of the same compound?
A: 50

Q: What about the “Plant response rating, Dallisgrass” value [3, 21] of the same compound?
A: 80

Q: What about the “Plant response rating, Dallisgrass” value [3, 22] of the same compound?
A: 98

Q: And the “Plant response rating, Sowthistle” value [4, 16]?
A: 90

Q: What about the “Plant response rating, Sowthistle” value [4, 17] of the same compound?
A: 98

Q: What about the “Plant response rating, Sowthistle” value [4, 18] of the same compound?
A: 100

Q: And the “Plant response rating, Sowthistle” value [4, 19]?
A: 98

Q: What about the “Plant response rating, Sowthistle” value [4, 20] of the same compound?
A: 98

Q: What about the “Plant response rating, Sowthistle” value [4, 23] of the same compound?
A: 100

Q: What about the “Plant response rating, Sowthistle” value [4, 22] of the same compound?
A: 100

Q: What about the “Plant response rating, Foxtail, Green” value [5, 16] of the same compound?
A: 5

Q: What about the “Plant response rating, Foxtail, Green” value [5, 17] of the same compound?
A: 30

Q: And the “Plant response rating, Foxtail, Green” value [5, 18]?
A: 60

Q: And the “Plant response rating, Foxtail, Green” value [5, 19]?
A: 35

Q: What about the “Plant response rating, Foxtail, Green” value [5, 20] of the same compound?
A: 0

Q: What about the “Plant response rating, Foxtail, Green” value [5, 23] of the same compound?
A: 0

Q: What about the “Plant response rating, Foxtail, Green” value [5, 21] of the same compound?
A: 0

Q: And the “Plant response rating, Foxtail, Green” value [5, 22]?
A: 10

Q: What about the “Plant response rating, Nutsedge, Purple” value [6, 16] of the same compound?
A: 0

Q: What about the “Plant response rating, Nutsedge, Purple” value [6, 17] of the same compound?
A: 10

Q: What about the “Plant response rating, Nutsedge, Purple” value [6, 18] of the same compound?
A: 50

Q: What about the “Plant response rating, Nutsedge, Purple” value [6, 19] of the same compound?
A: 20

Q: What about the “Plant response rating, Nutsedge, Purple” value [6, 20] of the same compound?
A: 0

Q: And the “Plant response rating, Nutsedge, Purple” value [6, 23]?
A: 5

Q: What about the “Plant response rating, Nutsedge, Purple” value [6, 21] of the same compound?
A: 50

Q: What about the “Plant response rating, Nutsedge, Purple” value [6, 22] of the same compound?
A: 75

Q: And the “Plant response rating, Barnyardgrass” value [7, 16]?
A: 35

Q: And the “Plant response rating, Barnyardgrass” value [7, 24]?
A: 50

Q: What about the “Plant response rating, Barnyardgrass” value [7, 18] of the same compound?
A: 70

Q: And the “Plant response rating, Barnyardgrass” value [7, 19]?
A: 60

Q: What about the “Plant response rating, Barnyardgrass” value [7, 20] of the same compound?
A: 0

Q: What about the “Plant response rating, Barnyardgrass” value [7, 23] of the same compound?
A: 5

Q: What about the “Plant response rating, Barnyardgrass” value [7, 21] of the same compound?
A: 50

Q: And the “Plant response rating, Barnyardgrass” value [7, 22]?
A: 95

Q: And the “Plant response rating, Itchgrass” value [8, 16]?
A: 0

Q: And the “Plant response rating, Itchgrass” value [8, 17]?
A: 0

Q: What about the “Plant response rating, Itchgrass” value [8, 18] of the same compound?
A: 30

Q: And the “Plant response rating, Itchgrass” value [8, 19]?
A: 30

Q: What about the “Plant response rating, Itchgrass” value [8, 20] of the same compound?
A: 0

Q: And the “Plant response rating, Itchgrass” value [8, 23]?
A: 20

Q: What about the “Plant response rating, Itchgrass” value [8, 21] of the same compound?
A: 20

Q: And the “Plant response rating, Itchgrass” value [8, 22]?
A: 20

Q: What about the “Plant response rating, Goosegrass” value [9, 16] of the same compound?
A: 30

Q: What about the “Plant response rating, Goosegrass” value [9, 17] of the same compound?
A: 35

Q: And the “Plant response rating, Goosegrass” value [9, 18]?
A: 65

Q: What about the “Plant response rating, Goosegrass” value [9, 19] of the same compound?
A: 65

Q: And the “Plant response rating, Goosegrass” value [9, 20]?
A: 35

Q: And the “Plant response rating, Goosegrass” value [9, 23]?
A: 35

Q: What about the “Plant response rating, Goosegrass” value [9, 21] of the same compound?
A: 95

Q: What about the “Plant response rating, Goosegrass” value [9, 22] of the same compound?
A: 100

Q: What about the “Plant response rating, Prickly Sida” value [10, 16] of the same compound?
A: 70

Q: And the “Plant response rating, Prickly Sida” value [10, 17]?
A: 80

Q: And the “Plant response rating, Prickly Sida” value [10, 18]?
A: 95

Q: And the “Plant response rating, Prickly Sida” value [10, 19]?
A: 80

Q: What about the “Plant response rating, Prickly Sida” value [10, 20] of the same compound?
A: 50

Q: What about the “Plant response rating, Prickly Sida” value [10, 23] of the same compound?
A: 60

Q: What about the “Plant response rating, Prickly Sida” value [10, 21] of the same compound?
A: 100

Q: What about the “Plant response rating, Prickly Sida” value [10, 22] of the same compound?
A: 100

Q: And the “Plant response rating, Crabgrass, Large” value [11, 16]?
A: 40

Q: What about the “Plant response rating, Crabgrass, Large” value [11, 17] of the same compound?
A: 65

Q: And the “Plant response rating, Crabgrass, Large” value [11, 18]?
A: 75

Q: What about the “Plant response rating, Crabgrass, Large” value [11, 19] of the same compound?
A: 70

Q: What about the “Plant response rating, Crabgrass, Large” value [11, 20] of the same compound?
A: 50

Q: And the “Plant response rating, Crabgrass, Large” value [11, 23]?
A: 75

Q: What about the “Plant response rating, Crabgrass, Large” value [11, 21] of the same compound?
A: 95

Q: What about the “Plant response rating, Crabgrass, Large” value [11, 22] of the same compound?
A: 100

Q: What about the “Plant response rating, Purslane” value [12, 16] of the same compound?
A: 10

Q: And the “Plant response rating, Purslane” value [12, 17]?
A: 25

Q: What about the “Plant response rating, Purslane” value [12, 18] of the same compound?
A: 35

Q: What about the “Plant response rating, Purslane” value [12, 19] of the same compound?
A: 35

Q: What about the “Plant response rating, Purslane” value [12, 20] of the same compound?
A: 70

Q: And the “Plant response rating, Purslane” value [12, 23]?
A: 100

Q: And the “Plant response rating, Purslane” value [12, 21]?
A: 100

Q: And the “Plant response rating, Purslane” value [12, 22]?
A: 100

Q: And the “Plant response rating, Bluegrass” value [13, 16]?
A: 0

Q: And the “Plant response rating, Bluegrass” value [13, 24]?
A: 0

Q: And the “Plant response rating, Bluegrass” value [13, 18]?
A: 0

Q: And the “Plant response rating, Bluegrass” value [13, 19]?
A: 0

Q: What about the “Plant response rating, Bluegrass” value [13, 20] of the same compound?
A: 20

Q: And the “Plant response rating, Bluegrass” value [13, 23]?
A: 20

Q: What about the “Plant response rating, Bluegrass” value [13, 21] of the same compound?
A: 25

Q: And the “Plant response rating, Bluegrass” value [13, 22]?
A: 35

Q: And the “Plant response rating, Kochia” value (kochia (Kochia scoparia); [16])?
A: 25

Q: What about the “Plant response rating, Kochia” value (kochia (Kochia scoparia); [17]) of the same compound?
A: 35

Q: What about the “Plant response rating, Kochia” value (kochia (Kochia scoparia); [18]) of the same compound?
A: 60

Q: And the “Plant response rating, Kochia” value (kochia (Kochia scoparia); [19])?
A: 35

Q: And the “Plant response rating, Kochia” value (kochia (Kochia scoparia); [20])?
A: 65

Q: What about the “Plant response rating, Kochia” value (kochia (Kochia scoparia); [23]) of the same compound?
A: 98

Q: What about the “Plant response rating, Kochia” value (kochia (Kochia scoparia); [21]) of the same compound?
A: 100

Q: What about the “Plant response rating, Kochia” value (kochia (Kochia scoparia); [22]) of the same compound?
A: 100

Q: What about the “Plant response rating, Johnsongrass” value [14, 16] of the same compound?
A: 20

Q: And the “Plant response rating, Johnsongrass” value [14, 17]?
A: 30

Q: And the “Plant response rating, Johnsongrass” value [14, 18]?
A: 60

Q: What about the “Plant response rating, Johnsongrass” value [14, 19] of the same compound?
A: 40

Q: And the “Plant response rating, Johnsongrass” value [14, 20]?
A: 0

Q: And the “Plant response rating, Johnsongrass” value [14, 23]?
A: 5

Q: And the “Plant response rating, Johnsongrass” value [14, 21]?
A: 20

Q: And the “Plant response rating, Johnsongrass” value [14, 22]?
A: 70

Q: And the “Plant response rating, Ragweed” value [15, 16]?
A: 70

Q: What about the “Plant response rating, Ragweed” value [15, 17] of the same compound?
A: 80

Q: And the “Plant response rating, Ragweed” value [15, 18]?
A: 98

Q: And the “Plant response rating, Ragweed” value [15, 19]?
A: 95

Q: And the “Plant response rating, Ragweed” value [15, 20]?
A: 30

Q: And the “Plant response rating, Ragweed” value [15, 23]?
A: 98

Q: What about the “Plant response rating, Ragweed” value [15, 22] of the same compound?
A: 98
